Assay results taken from patent US20220315578A1, “BRD9 BIFUNCTIONAL DEGRADERS AND THEIR METHODS OF USE” (NOVARTIS AG, priority 2019, published 2022).

Molecular target: T1, BRD9-GFP (Homo sapiens, UniProt Q9H8M2)
T1 construct: CHYSEL (2A cis-acting hydrolase element) remnant after GFP; mCherry is split off as a separate protein (C); expressed in transfected cells; host or cells: HEK293A cells (Invitrogen R70507), lentiviral transduction with pLenti6-BRD9-GFP-CHYSEL-mCherry, blasticidin selection
T1 sequence (Q9H8M2 1-597): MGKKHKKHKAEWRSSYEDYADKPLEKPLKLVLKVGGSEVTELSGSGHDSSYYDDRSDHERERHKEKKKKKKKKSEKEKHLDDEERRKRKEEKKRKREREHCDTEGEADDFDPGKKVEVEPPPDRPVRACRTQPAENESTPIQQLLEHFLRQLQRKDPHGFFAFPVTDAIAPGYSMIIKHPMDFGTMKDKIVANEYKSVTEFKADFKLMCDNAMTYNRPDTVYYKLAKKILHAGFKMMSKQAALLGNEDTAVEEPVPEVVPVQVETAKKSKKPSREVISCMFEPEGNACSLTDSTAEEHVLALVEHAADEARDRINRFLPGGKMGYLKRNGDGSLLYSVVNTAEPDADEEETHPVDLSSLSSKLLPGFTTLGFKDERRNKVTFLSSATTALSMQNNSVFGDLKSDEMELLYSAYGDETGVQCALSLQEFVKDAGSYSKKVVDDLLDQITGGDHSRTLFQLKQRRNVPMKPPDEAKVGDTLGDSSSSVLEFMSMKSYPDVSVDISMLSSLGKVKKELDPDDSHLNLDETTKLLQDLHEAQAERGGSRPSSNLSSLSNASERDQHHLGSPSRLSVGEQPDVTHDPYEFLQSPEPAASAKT
Assay: BRD9-GFP protein abundance flow cytometry assay in HEK293A cells
Format: cell-based
Conditions: HEK293A-BRD9-GFP-CHYSEL-mCherry cells; for BRD9 Deg Amax %: 24 h, % protein remaining at the concentration at which maximum degradation is seen; for DC50: 24 h at 37° C., 10-point 1:3 dilution, concentration at which 50% maximal degradation was observed
Protocol: Compounds of the invention were tested in the following cellular assays. The terms in Table 1 are defined as follows: DC50 refers to the concentration at which 50% maximal degradation was observed; deg Amax is the extent of degradation and the value refers to the % protein remaining at the concentration at which maximum degradation is seen.
BRD9-GFP protein abundance flow cytometry assay in HEK293A cells: Degradation of BRD9 was measured in HEK293A cells expressing BRD9-GFP and mCherry from a stably integrated second generation bicistronic BRD9-GFP-CHYSELmCherry construct. Reduction of the GFP signal measured by flow cytometry served as readout for BRD9 degradation after degrader treatment.
The bicistronic BRD9-GFP-CHYSEL-mCherry construct is based on a pLenti6-DEST vector backbone where a GFP-CHYSEL-mCherry cassette was synthesized and inserted downstream of the DEST cassette by Gibson assembly resulting in the new gateway compatible vector pLenti6-DEST-GFP-CHYSEL-mCherry to allow Gateway cloning with pENTR221-BRD9 (w/o ATG) to obtain the final sensor construct pLenti6-BRD9-GFP-CHYSEL-mCherry.
HEK293 Å-BRD9-GFP-CHYSEL-mCherry sensor cells were generated by lentiviral vector transduction using the pLenti6-BRD9-GFP-CHYSEL-mCherry sensor construct described before. […] The mix was incubated for another 20 min at RT and then added to 1 ml of a freshly prepared suspension of HEK293FT cells in a well of a 6-well plate (concentration 1.2×10^6 cells/ml). 1 day after transfection, the medium was replaced with 1.5 ml of complete growth medium (DMEM high Glucose+10% FCS+1% L-Glutamine+1% NEAA+1% NaPyr.). 48 h post transfection supernatant containing viral transducing particles was collected and frozen at −80° C. […] Infection was performed with […] of collected supernatant containing viral transducing particles in 1 ml medium including 8 μg/ml polybrene. 24 h post infection, stably transfected cells were selected with blasticidin at a concentration of 8 μg/ml.
Stable HEK293 Å-BRD9-GFP-CHYSEL-mCherry cells were maintained in complete growth medium (DMEM high Glucose+10% FCS+1% L-Glutamine+1% NEAA+1% NaPyr.) with passaging performed twice per week. On Day 0, HEK293 Å-BRD9-GFP-CHYSEL-mCherry cells were seeded at 10,000 cells/well in a 96-well microtiter plate in […] complete medium. On Day 1, cells were treated in duplicate with 10-point 1:3 dilution series of compound using the HP D300 Digital Dispenser (Tecan). DMSO concentrations were normalized across the plate to 0.1%. On Day 2, after 24 h of incubation at 37° C., treatment media was discarded, cells rinsed with 100 ul/well PBS and then detached using 40 ul trypsin/well for 5 min. Trypsin was neutralized with 100 ul/well PBS+20% FCS). Flow cytometry was performed on the samples using the Beckman Coulter CytoFLEX flow cytometer. Cell identification was then performed using forward (FSC) vs. side scatter (SSC) plots. Single cell discrimination is performed using FSC-Width (FSC-W) vs. FSC-Height (FSC-H) plots. Median GFP/mCherry ratio values for 5,000 single cells are used to determine BRD9 levels. Median GFP/mCherry ratio values from HEK293 Å-mCherry are used as a background signal and thus defining 0% BRD9 signal. Median GFP/mCherry ratio values from DMSO treated HEK293 Å-BRD9-GFP-CHYSEL-mCherry are used to define 100% BRD9 signal for subsequent DC50 curves (concentration at 50% BRD9 degradation). Concentration response curves plotting relative reduction of the GFP/mCherry ratio signal (measured by flow cytometry) versus 10 compound concentrations (starting concentration […], 3 fold dilution steps) of the compounds allowed generation of DC50 values. Data is shown in Tables 2 and 3, in which, DC50 refers to the concentration at which 50% maximal degradation was observed; deg Amax is the extent of degradation and the value refers to the % protein remaining at the concentration at which maximum degradation is seen.

Row | Structure (SMILES) | BRD9 Deg Amax % [%] | DC50 [nM]
1 | COc1ccc(C(=O)N2CCC(OC3CCN(Cc4c(OC)cc(-c5cc(C)c(=O)n(C)c5)cc4OC)CC3)CC2)cc1N1CCC(=O)NC1=O [Compound A1] | 10.72 | 54
2 | COc1cc(-c2cc(C)c(=O)n(C)c2)ccc1C(=O)N1CCC(OC2CCN(C(=O)c3ccc(OC)c(N4CCC(=O)NC4=O)c3)CC2)CC1 [Compound A2, 1-(5-(4-((1-(4-(1,5-Dimethyl-6-oxo-1,6-dihydropyridin-3-yl)-2-methoxybenzoyl)piperidin-4-yl)oxy)piperidine-1-carbonyl)-2-methoxyphenyl)dihydropyrimidine-2,4(1H,3H)-dione] | 13.39 | 63
3 | COc1cc(-c2cc(C)c(=O)n(C)c2)ccc1C(=O)N1CCN(CC2CCN(C(=O)c3ccc(OC)c(N4CCC(=O)NC4=O)c3)CC2)CC1 [Compound A3, 1-(5-(4-((4-(4-(1,5-Dimethyl-6-oxo-1,6-dihydropyridin-3-yl)-2-methoxybenzoyl)piperazin-1-yl)methyl)piperidine-1-carbonyl)-2-methoxyphenyl)dihydropyrimidine-24(1H,3H)-dione] | 12.29 | 68
4 | COc1cc(-c2cn(C)c(=O)c3cnccc23)ccc1OCC1CCN(CC2CCN(C(=O)c3ccc(OC)c(N4CCC(=O)NC4=O)c3)CC2)CC1 [Compound A5, 1-(2-Methoxy-5-(4-((4-((2-methoxy-4-(2-methyl-1-oxo-1,2-dihydro-2,7-naphthyridin-4-yl)phenoxy)methyl)piperidin-1-yl)methyl)piperidine-1-carbonyl)phenyl)dihydropyrimidine-2,4(1H,3H)-dione] | 18.64 | 19
5 | COc1cc(-c2cc(C)c(=O)n(C)c2)c(OC)cc1CN1CCC(OC2CCN(C(=O)COc3ccc(N4CCC(=O)NC4=O)cc3)CC2)CC1 [Compound A7, 1-(4-(2-(4-((1-(4-(1,5-Dimethyl-6-oxo-1,6-dihydropyridin-3-yl)-2,5-dimethoxybenzyl)piperidin-4-yl)oxy)piperidin-1-yl)-2-oxoethoxy)phenyl)dihydropyrimidine-2,4(1H,3H)-dione] | 21.30 | 60
6 | COc1cc(-c2cc(C)c(=O)n(C)c2)cc(OC)c1CN1CCC(OC2CCN(C(=O)COc3ccc(N4CCC(=O)NC4=O)cc3)CC2)CC1 [Compound A8, 1-(4-(2-(4-((1-(4-(1,5-Dimethyl-6-oxo-1,6-dihydropyridin-3-yl)-2,6-dimethoxybenzyl)piperidin-4-yl)oxy)piperidin-1-yl)-2-oxoethoxy)phenyl)dihydropyrimidine-2,4(1H,3H)-dione] | 16.25 | 70

Now those with a lower DC50, led by results:

Row | BRD9 Deg Amax % [%] | DC50 [nM] | Structure (SMILES)
7 | 14.01 | 4 | COc1cc(-c2cn(C)c(=O)c3cnccc23)ccc1OC1CCN(CC2CCN(C(=O)c3ccc(OC)c(N4CCC(=O)NC4=O)c3)CC2)CC1 [Compound A4, 1-(2-Methoxy-5-(4-((4-(2-methoxy-4-(2-methyl-1-oxo-1,2-dihydro-2,7-naphthyridin-4-yl)phenoxy)piperidin-1-yl)methyl)piperidine-1-carbonyl)phenyl)dihydropyrimidine-2,4(1H,3H)-dione]
8 | 12.25 | 3 | COc1ccc(C(=O)N2CCC(CN3CCC(Oc4c(OC)cc(-c5cn(C)c(=O)c6cnccc56)cc4OC)CC3)CC2)cc1N1CCC(=O)NC1=O [Compound A6, 1-(5-(4-((4-(2,6-Dimethoxy-4-(2-methyl-1-oxo-1,2-dihydro-2,7-naphthyridin-4-yl)phenoxy)piperidin-1-yl)methyl)piperidine-1-carbonyl)-2-methoxyphenyl)dihydropyrimidine-2,4(1H,3H)-dione]
9 | 20.62 | 2 | COc1cc(-c2cn(C)c(=O)c3cnccc23)cc(OC)c1OC1CCN(CC2CCN(C(=O)c3ccc(Cl)c(N4CCC(=O)NC4=O)c3)CC2)CC1 [Compound A9, 1-(2-Chloro-5-(4-((4-(2,6-dimethoxy-4-(2-methyl-1-oxo-1,2-dihydro-2,7-naphthyridin-4-yl)phenoxy)piperidin-1-yl)methyl)piperidine-1-carbonyl)phenyl)dihydropyrimidine-2,4(1H,3H)-dione]
10 | 18.93 | 2 | COc1cc(-c2cn(C)c(=O)c3cnccc23)ccc1OC1CCN(CC2CCN(C(=O)c3ccc(Cl)c(N4CCC(=O)NC4=O)c3)CC2)CC1 [Compound A10, 1-(2-Chloro-5-(4-((4-(2-methoxy-4-(2-methyl-1-oxo-1,2-dihydro-2,7-naphthyridin-4-yl)phenoxy)piperidin-1-yl)methyl)piperidine-1-carbonyl)phenyl)dihydropyrimidine-2,4(1H,3H)-dione]
11 | 19.45 | 12 | COc1cc(-c2cn(C)c(=O)c3cnccc23)ccc1OC1CCN(CC2CCN(C(=O)c3cccc(N4CCC(=O)NC4=O)c3)CC2)CC1 [Compound A11, 1-(3-(4-((4-(2-Methoxy-4-(2-methyl-1-oxo-1,2-dihydro-2,7-naphthyridin-4-yl)phenoxy)piperidin-1-yl)methyl)piperidine-1-carbonyl)phenyl)dihydropyrimidine-2,4(1H,3H)-dione]
12 | 13.46 | 2 | COc1ccc(C(=O)N2CCC(CN3CCC(Oc4ccc(-c5cn(C)c(=O)c6cnccc56)cc4)CC3)CC2)cc1N1CCC(=O)NC1=O [Compound A12, 1-(2-Methoxy-5-(4-((4-(4-(2-methyl-1-oxo-1,2-dihydro-2,7-naphthyridin-4-yl)phenoxy)piperidin-1-yl)methyl)piperidine-1-carbonyl)phenyl)dihydropyrimidine-2,4(1H,3H)-dione]
13 | 18.05 | 15 | COc1cc(-c2cn(C)c(=O)c(C)c2C)ccc1CN1CCN(CC2CCN(C(=O)c3ccc(OC)c(N4CCC(=O)NC4=O)c3)CC2)CC1 [Compound A13, 1-(2-Methoxy-5-(4-((4-(2-methoxy-4-(1,4,5-trimethyl-6-oxo-1,6-dihydropyridin-3-yl)benzyl)piperazin-1-yl)methyl)piperidine-1-carbonyl)phenyl)dihydropyrimidine-2,4(1H,3H)-dione]
